In PubChem BioAssay AID256 (DTP/NCI, 2004):
Several values for one entry are separate records, joined by “and”; a condition that tells them apart may be missing. Equal entries are not always repeated. Toxic doses and inconclusive results are not listed. How the source made its calls: active means survival T/C of 150% or more; inactive means T/C below 125% in these data.

System: CD2F1 mice, L1210 leukemia ip, survival T/C
Test: NCI In Vivo Anticancer Drug Screen. Data for tumor model L1210 Leukemia (intraperitoneal) in CD2F1 (CDF1) mice
Conditions: higher = longer survival
In short: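 Each value reflects a quotient of treated over vehicle control outcomes in mice with a transplanted tumor.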

[1] = endpoint: mean survival time, dose: 100.0 mg/kg/injection, schedule: Q01DX009 (ip), vehicle: other
[2] = endpoint: mean survival time, dose: 100.0 mg/kg/injection, schedule: Q01DX009 (ip), vehicle: saline with Tween-80
[3] = endpoint: mean survival time, dose: 100.0 mg/kg/injection, schedule: Q04DX003 (ip), vehicle: saline with Tween-80
[4] = endpoint: mean survival time, dose: 200.0 mg/kg/injection, schedule: Q01DX009 (ip), vehicle: saline with Tween-80
[5] = endpoint: mean survival time, dose: 400.0 mg/kg/injection, schedule: Q04DX003 (ip), vehicle: saline with Tween-80
[6] = endpoint: mean survival time, dose: 100.0 mg/kg/injection, schedule: Q01DX001 (ip), vehicle: saline
[7] = endpoint: mean survival time, dose: 200.0 mg/kg/injection, schedule: Q01DX001 (ip), vehicle: saline
[8] = endpoint: mean survival time, dose: 400.0 mg/kg/injection, schedule: Q01DX001 (ip), vehicle: saline
[9] = endpoint: mean survival time, dose: 200.0 mg/kg/injection, schedule: Q04DX003 (ip), vehicle: saline with Tween-80

Measured: T/C

COc1ccc(C2(C)OCCCC2([NH-])C[NH-])cc1.[Cl][Pt+2][Cl] (stereo not given)
inactive: endpoint: median survival time, dose: 10.0 mg/kg/injection, schedule: Q04DX003 (ip), vehicle: saline 105 % of control | endpoint: median survival time, dose: 20.0 mg/kg/injection, schedule: Q04DX003 (ip), vehicle: saline 103 % of control | endpoint: median survival time, dose: 40.0 mg/kg/injection, schedule: Q04DX003 (ip), vehicle: saline 105 % of control | endpoint: median survival time, dose: 80.0 mg/kg/injection, schedule: Q04DX003 (ip), vehicle: saline with Tween-80 100 % of control | endpoint: median survival time, dose: 80.0 mg/kg/injection, schedule: Q04DX003 (ip), vehicle: saline 95 % of control | endpoint: median survival time, dose: 160.0 mg/kg/injection, schedule: Q04DX003 (ip), vehicle: saline with Tween-80 110 % of control | endpoint: median survival time, dose: 320.0 mg/kg/injection, schedule: Q04DX003 (ip), vehicle: saline with Tween-80 115 % of control

Cc1ccc(C2OC23CC(C)(C)c2ccccc2C3=O)cc1 (stereo not given)
inactive: [1] 100 % of control | endpoint: mean survival time, dose: 200.0 mg/kg/injection, schedule: Q01DX009 (ip), vehicle: other 96 % of control | endpoint: mean survival time, dose: 400.0 mg/kg/injection, schedule: Q01DX009 (ip), vehicle: other 107 % of control

C=C1C(=O)C2=CC1CCC(=O)C1(C)CCC(OC(C)=O)C(C)(C)C1CC2O (stereo not given)
inactive: endpoint: mean survival time, dose: 3.75 mg/kg/injection, schedule: Q01DX009 (ip), vehicle: Klucel (hydroxypropylcellulose) (HPC) 97 % of control | endpoint: mean survival time, dose: 7.5 mg/kg/injection, schedule: Q01DX009 (ip), vehicle: Klucel (hydroxypropylcellulose) (HPC) 98 % of control and 100 % of control | endpoint: mean survival time, dose: 15.0 mg/kg/injection, schedule: Q01DX009 (ip), vehicle: Klucel (hydroxypropylcellulose) (HPC) 95 % of control and 98 % of control | endpoint: mean survival time, dose: 30.0 mg/kg/injection, schedule: Q01DX009 (ip), vehicle: Klucel (hydroxypropylcellulose) (HPC) 98 % of control and 101 % of control | endpoint: mean survival time, dose: 60.0 mg/kg/injection, schedule: Q01DX009 (ip), vehicle: Klucel (hydroxypropylcellulose) (HPC) 95 % of control and 96 % of control | endpoint: mean survival time, dose: 120.0 mg/kg/injection, schedule: Q01DX009 (ip), vehicle: Klucel (hydroxypropylcellulose) (HPC) 89 % of control

O=c1[nH]c(=O)c2ncn(C3OC(CO)C(O)C3O)c2[nH]1.O=c1[nH]c(=O)c2ncn(C3OC(CO)C(O)C3O)c2[nH]1.[NH2-].[NH2-].[Pt+2] (stereo not given)
inactive: endpoint: mean survival time, dose: 6.25 mg/kg/injection, schedule: Q#A X018 (ip), vehicle: water 116 % of control | endpoint: mean survival time, dose: 12.5 mg/kg/injection, schedule: Q04DX003 (ip), vehicle: water 106 % of control | endpoint: mean survival time, dose: 12.5 mg/kg/injection, schedule: Q#A X018 (ip), vehicle: water 116 % of control | endpoint: mean survival time, dose: 25.0 mg/kg/injection, schedule: Q#A X018 (ip), vehicle: water 124 % of control | endpoint: mean survival time, dose: 50.0 mg/kg/injection, schedule: Q04DX003 (ip), vehicle: water 106 % of control | endpoint: mean survival time, dose: 100.0 mg/kg/injection, schedule: Q04DX003 (ip), vehicle: water 111 % of control | endpoint: mean survival time, dose: 200.0 mg/kg/injection, schedule: Q04DX003 (ip), vehicle: water 106 % of control | endpoint: mean survival time, dose: 400.0 mg/kg/injection, schedule: Q04DX003 (ip), vehicle: water 118 % of control

CC(C)C(Br)C(Br)c1ccccc1 (stereo not given)
inactive: endpoint: mean survival time, dose: 100.0 mg/kg/injection, schedule: Q04DX003 (ip), vehicle: saline 96 % of control | endpoint: mean survival time, dose: 200.0 mg/kg/injection, schedule: Q04DX003 (ip), vehicle: saline 102 % of control

O=Nc1cc(S(=O)(=O)O)c2ccccc2c1O
inactive: [2] 90 % of control | [3] 97 % of control | [4] 88 % of control and 109 % of control | endpoint: mean survival time, dose: 400.0 mg/kg/injection, schedule: Q01DX009 (ip), vehicle: saline with Tween-80 95 % of control | [5] 97 % of control

CC(C)(CNC1CCCCC1)OC(=O)c1ccccc1
inactive: endpoint: mean survival time, dose: 75.0 mg/kg/injection, schedule: Q01DX001 (ip), vehicle: saline 105 % of control | endpoint: mean survival time, dose: 150.0 mg/kg/injection, schedule: Q01DX001 (ip), vehicle: saline 100 % of control

c1cc2c3c(c4sc5ccccc5c4cc3c1)CC2
inactive: endpoint: mean survival time, dose: 12.5 mg/kg/injection, schedule: Q04DX003 (ip), vehicle: other 101 % of control | endpoint: mean survival time, dose: 25.0 mg/kg/injection, schedule: Q04DX003 (ip), vehicle: other 115 % of control | endpoint: mean survival time, dose: 50.0 mg/kg/injection, schedule: Q04DX003 (ip), vehicle: other 108 % of control | endpoint: mean survival time, dose: 100.0 mg/kg/injection, schedule: Q04DX003 (ip), vehicle: other 115 % of control | endpoint: mean survival time, dose: 200.0 mg/kg/injection, schedule: Q04DX003 (ip), vehicle: other 108 % of control

NC(=O)c1csc(NC2OC(CO)C(O)C(O)C2O)n1 (stereo not given)
inactive: endpoint: mean survival time, dose: 12.5 mg/kg/injection, schedule: Q01DX005 (ip), vehicle: water 98 % of control | endpoint: mean survival time, dose: 25.0 mg/kg/injection, schedule: Q01DX005 (ip), vehicle: water 96 % of control | endpoint: mean survival time, dose: 50.0 mg/kg/injection, schedule: Q01DX005 (ip), vehicle: water 101 % of control | endpoint: mean survival time, dose: 100.0 mg/kg/injection, schedule: Q01DX005 (ip), vehicle: water 96 % of control | endpoint: mean survival time, dose: 200.0 mg/kg/injection, schedule: Q01DX005 (ip), vehicle: water 98 % of control

CC(=O)OC1C(OC(C)=O)C(OC(C)=O)C(OC(C)=O)C(OC(C)=O)C1OC(C)=O (stereo not given)
inactive: endpoint: mean survival time, dose: 100.0 mg/kg/injection, schedule: Q04DX002 (ip), vehicle: saline with Tween-80 100 % of control | endpoint: mean survival time, dose: 200.0 mg/kg/injection, schedule: Q04DX002 (ip), vehicle: saline with Tween-80 86 % of control | endpoint: mean survival time, dose: 400.0 mg/kg/injection, schedule: Q04DX002 (ip), vehicle: saline with Tween-80 93 % of control

CC1=CC(C)(C)Nc2ccc(CSc3ccccc3)cc21
inactive: endpoint: mean survival time, dose: 12.5 mg/kg/injection, schedule: Q01DX009 (ip), vehicle: DMSO 102 % of control | endpoint: mean survival time, dose: 25.0 mg/kg/injection, schedule: Q01DX009 (ip), vehicle: DMSO 95 % of control | endpoint: mean survival time, dose: 25.0 mg/kg/injection, schedule: Q01DX009 (ip), vehicle: other 97 % of control | endpoint: mean survival time, dose: 50.0 mg/kg/injection, schedule: Q01DX009 (ip), vehicle: DMSO 97 % of control | endpoint: mean survival time, dose: 50.0 mg/kg/injection, schedule: Q01DX009 (ip), vehicle: other 93 % of control | [1] 96 % of control

CC/C(=C\C=C\N(C)C)C(=O)OC
inactive: endpoint: mean survival time, dose: 50.0 mg/kg/injection, schedule: Q01DX009 (ip), vehicle: saline with Tween-80 100 % of control | [2] 100 % of control | [4] 105 % of control

CC1OC(O)C(O)C(O)C1O (stereo not given)
inactive: [6] 102 % of control | [7] 100 % of control | [8] 100 % of control

Oc1ccc(NC(=S)Nc2ccccc2)cc1
inactive: [6] 98 % of control | [7] 98 % of control | [8] 96 % of control

CC(=O)OCc1cccnc1
inactive: endpoint: mean survival time, dose: 100.0 mg/kg/injection, schedule: Q01DX009 (ip), vehicle: saline 96 % of control | endpoint: mean survival time, dose: 200.0 mg/kg/injection, schedule: Q01DX009 (ip), vehicle: saline 94 % of control | endpoint: mean survival time, dose: 400.0 mg/kg/injection, schedule: Q01DX009 (ip), vehicle: saline 86 % of control

O=C(Nc1cccc2ccccc12)[C@H]1C[C@H]2C=C[C@@H]1C2
inactive: endpoint: mean survival time, dose: 37.5 mg/kg/injection, schedule: Q01DX009 (ip), vehicle: saline with Tween-80 101 % of control | endpoint: mean survival time, dose: 75.0 mg/kg/injection, schedule: Q01DX009 (ip), vehicle: saline with Tween-80 95 % of control | endpoint: mean survival time, dose: 150.0 mg/kg/injection, schedule: Q01DX009 (ip), vehicle: saline with Tween-80 95 % of control | endpoint: mean survival time, dose: 300.0 mg/kg/injection, schedule: Q01DX009 (ip), vehicle: saline with Tween-80 97 % of control

CCCCCCC(O)CCCCCCCCCCC(=O)O (stereo not given)
inactive: [3] 98 % of control | [9] 92 % of control | [5] 90 % of control

CCc1c(Br)c(CC)c(CC)c(CC)c1CC
inactive: [3] 98 % of control | [9] 98 % of control | [5] 97 % of control

O=C(Nc1ccccc1I)c1ccccc1
inactive: [3] 110 % of control | [9] 98 % of control | [5] 98 % of control

CCCC(=O)NN=C(C)C
inactive: endpoint: mean survival time, dose: 12.5 mg/kg/injection, schedule: Q04DX003 (ip), vehicle: saline 105 % of control | endpoint: mean survival time, dose: 25.0 mg/kg/injection, schedule: Q04DX003 (ip), vehicle: saline 104 % of control | endpoint: mean survival time, dose: 50.0 mg/kg/injection, schedule: Q04DX003 (ip), vehicle: saline 107 % of control

CCC(Cc1ccccc1Br)C1=NC(C)(C)CO1 (stereo not given)
inactive: endpoint: mean survival time, dose: 100.0 mg/kg/injection, schedule: Q01DX001 (ip), vehicle: acetone 96 % of control | endpoint: mean survival time, dose: 200.0 mg/kg/injection, schedule: Q01DX001 (ip), vehicle: acetone 98 % of control

O=c1[nH]c(=O)n(CCCCOc2ccccc2)cc1-c1ccccc1
inactive: endpoint: mean survival time, dose: 100.0 mg/kg/injection, schedule: Q01DX001 (ip), vehicle: saline with Tween-80 98 % of control | endpoint: mean survival time, dose: 200.0 mg/kg/injection, schedule: Q01DX001 (ip), vehicle: saline with Tween-80 101 % of control | endpoint: mean survival time, dose: 400.0 mg/kg/injection, schedule: Q01DX001 (ip), vehicle: saline with Tween-80 96 % of control
